According to US12441706B2, “Protein degradation agent compound preparation method and application” (SHANGHAI JEMINCARE PHARMACEUTICALS CO., LTD., priority 2019, dated 2025):

Biological target: T1, androgen receptor (Homo sapiens, UniProt P10275)
T1 construct: endogenous in cells; host or cells: VCaP cells
T1 sequence (P10275 1-920): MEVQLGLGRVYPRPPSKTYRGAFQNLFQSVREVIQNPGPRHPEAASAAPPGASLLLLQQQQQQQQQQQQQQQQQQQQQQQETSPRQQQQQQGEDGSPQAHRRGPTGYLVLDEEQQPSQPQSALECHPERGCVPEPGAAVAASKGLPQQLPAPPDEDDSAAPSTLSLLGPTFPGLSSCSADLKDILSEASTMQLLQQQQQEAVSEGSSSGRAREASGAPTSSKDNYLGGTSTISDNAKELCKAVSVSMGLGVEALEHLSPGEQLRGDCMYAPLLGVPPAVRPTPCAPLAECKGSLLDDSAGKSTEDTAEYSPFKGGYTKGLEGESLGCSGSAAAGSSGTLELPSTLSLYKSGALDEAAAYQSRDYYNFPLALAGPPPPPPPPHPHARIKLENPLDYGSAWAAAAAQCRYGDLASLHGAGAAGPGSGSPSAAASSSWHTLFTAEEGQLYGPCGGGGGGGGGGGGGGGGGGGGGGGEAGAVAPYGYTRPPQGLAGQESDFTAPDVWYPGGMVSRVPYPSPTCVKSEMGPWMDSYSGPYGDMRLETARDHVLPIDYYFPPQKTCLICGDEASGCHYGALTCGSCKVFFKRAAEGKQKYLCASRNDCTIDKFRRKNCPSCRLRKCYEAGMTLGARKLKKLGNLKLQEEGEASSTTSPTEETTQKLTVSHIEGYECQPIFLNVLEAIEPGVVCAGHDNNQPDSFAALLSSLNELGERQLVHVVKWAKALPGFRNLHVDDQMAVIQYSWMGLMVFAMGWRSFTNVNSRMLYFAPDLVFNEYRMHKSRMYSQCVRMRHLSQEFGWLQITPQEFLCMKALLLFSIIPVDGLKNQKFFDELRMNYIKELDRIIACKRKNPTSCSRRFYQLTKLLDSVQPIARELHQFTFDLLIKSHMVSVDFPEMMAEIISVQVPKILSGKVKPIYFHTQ
Test: In-Cell-Western determination of androgen receptor degradation in VCaP cells
Type: cell-based
Conditions: 24 hours treatment; for DC50: concentration for half of the maximal degradation of AR in VCaP cells; for Dmax: maximum degradation of AR in VCaP cells
Experimental: The determination evaluated the properties of the compounds in Vcap cells. Intracellular androgen receptor was determined by In-Cell-Western according to the determination steps described below.
In poly-D-Lysin pretreated 96-well cell culture plate (Corning 3599), Vcap cells were divided into […] volume, and inoculated with 50,000 cells/well in Vcap cell assay medium [DMEM containing phenol red (Gibco catalog number: 11995065); fetal bovine serum FBS (Gibco catalog number: 10099141C)]. Cells were cultured for at least two days.
1. First treated cells with compound. Compounds were gradient diluted with DMSO and cell culture medium, so that DMSO contained in cell culture plates was diluted to 0.5% —polypropylene plates were used according to the following protocol:
(1)(i) 200× stock plate in DMSO was prepared; (ii) 10 mM stock solution was diluted 1:4 with DMSO (10 μL stock solution+40 μL DMSO)=2000 μM, then entered into row 2; (iii) 1:4 (10 μL protac+40 μL DMSO) gradient dilution was performed in row 2 to row 9, and row 1 was reserved for 2000 μM reference compound and row 10 for DMSO. (iv) A total of 8 concentrations (final concentrations on the 200×plate were 2000 μM, 400 μM, 80 μM, etc.). (i) 3×stock solution in medium was prepared; (ii) 3 μL of 200× stock solution was transferred to 197 μL of culture medium (using 12-channel pipette, from line 1 to line 10), i.e. 3× stock solution plate. (iii) The stock solution plate was mixed evenly. (3) (i) The culture medium of Vcap cells was replaced with fresh culture medium, 100 μL volume culture medium. (ii) The well-mixed 3×stock solution was transferred to the cell culture plate (using 12-channel pipette, and 50 μL of stock solution was transferred from line 1 to line 10). (iii) Cells were cultured for 24 hours.
2. The expression level of intracellular androgen receptor after compound treatment was […] and determined according to the following method.
(1)(i) Equal volume of 8% paraformaldehyde was added to the cell culture plate for cell fixation. The fixing solution in the cell plate was discarded and washed three times with PBS. (ii) Triton solution (1:1000 dilution of the stock solution) was prepared. The solution in the cell plate was discarded, and 200 μL of Triton diluent was added into each well. (iii) 2×blocking solution (1:4 dilution of 10×blocking stock solution) was prepared. The solution in the cell plate was discarded, and 100 μL of 2×blocking solution was added into each well. (iv) Primary antibody solution (Androgen receptor Rabbbit mAb, Cell Signaling Technology catalog number: 5153; 1:1000 dilution) was prepared. The solution in the cell plate was discarded, 100 μL volume of primary antibody diluent was added to each well, and incubated at 4° C. overnight. (v) The primary antibody solution was discarded and the cell plate was washed with 1×Wash buffer. (vi) Secondary antibody solution (GOAT Antirabbit IgG (H+L), HRP, Thermo catalog number: 31460; 1:5000 dilution) was prepared, and 100 μL volume of secondary antibody dilution was added to each well for incubation. (vii) The secondary antibody solution in the cell plate was discarded and the cell plate was washed with 1× Wash buffer. (viii) TMB chromogenic solution (BD catalog number: 550534) was prepared, and 100 μL chromogenic solution was added into each well. (ix) 50 μL volume of stop solution (BD catalog number: 550534) was added to each well. (x) The absorption values at OD 450 nm and 570 nm were read though EnVision. (2)(i) Normalized analysis was performed on the number of cells in each well. The solution in the cell plate was discarded, and washed with wash buffer for three times. (ii) Janus dilution (1:3 dilution) was prepared. (iii) 50 μL volume diluent was added to each well for incubation. (iv) The solution in the plate was discarded and washed with deionized water. […]

Structure (SMILES) | DC50 [nM] | Dmax [%]
CC1(C)C(=O)N(c2ccc(C#N)c(Cl)c2)c2ccc(-c3ccc(N4CC(CN5CCN(c6ccc7c(c6)C(=O)N(C6CCC(=O)NC6=O)C7=O)CC5)C4)cc3)cc21 (stereo not drawn) [Compound 1] | 35 | 68
CC1(C)C(=O)N(c2ccc(C#N)c(C(F)(F)F)c2)c2ccc(-c3ccc(N4CC(CN5CCN(c6ccc7c(c6)C(=O)N(C6CCC(=O)NC6=O)C7=O)CC5)C4)cc3)cc21 (stereo not drawn) [Compound 3] | 76 | 60
CC1(C)C(=O)N(c2ccc(C#N)c(Cl)c2)c2ccc(-c3ccc(N4CC(CN5CCN(c6ccc7c(c6)C(=O)N(C6CCC(=O)NC6=O)C7=O)CC5)C4)nc3F)cc21 (stereo not drawn) [Compound 14] | 94 | 85
